Laboratory results taken from patent publication EP1369415A1, “Substituted pyrrolyl compounds for the treatment of inflammation” (G.D. SEARLE & CO., priority 1996, dated 1998).

Key:
carrageenan foot edema = assay: Rat Carrageenan Foot Pad Edema Test; format: in vivo, Male Sprague-Dawley rats; conditions: @ 30mg/kg body weight; dosed orally one hour before carrageenan; foot volume three hours after injection
[1] = Analgesia (Table I; method not described); format: in vivo; conditions: @ 30mg/kg body weight
COX-1 = COX-1 (Homo sapiens, UniProt P23219); format: biochemical, human or murine
COX-1, sequence (P23219 24-599): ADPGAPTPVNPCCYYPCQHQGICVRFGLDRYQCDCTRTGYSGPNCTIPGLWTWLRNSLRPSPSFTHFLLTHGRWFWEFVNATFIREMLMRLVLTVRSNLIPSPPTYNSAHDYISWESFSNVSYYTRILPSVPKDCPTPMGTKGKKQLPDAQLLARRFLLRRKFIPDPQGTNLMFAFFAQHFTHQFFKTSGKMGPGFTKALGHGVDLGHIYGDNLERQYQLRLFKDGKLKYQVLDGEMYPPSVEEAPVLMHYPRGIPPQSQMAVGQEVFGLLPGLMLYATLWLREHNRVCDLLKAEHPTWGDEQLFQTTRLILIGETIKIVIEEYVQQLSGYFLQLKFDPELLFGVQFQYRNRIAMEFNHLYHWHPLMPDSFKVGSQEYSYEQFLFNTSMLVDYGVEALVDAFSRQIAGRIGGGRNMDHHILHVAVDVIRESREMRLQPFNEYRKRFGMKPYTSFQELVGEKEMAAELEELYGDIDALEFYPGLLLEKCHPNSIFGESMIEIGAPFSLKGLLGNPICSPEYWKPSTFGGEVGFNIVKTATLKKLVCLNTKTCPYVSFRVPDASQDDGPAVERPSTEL

SMILES | RAT PAW EDEMA % Inhibition (carrageenan foot edema) | ANALGESIA % Inhibition [1] | IC50 (COX-1)
CS(=O)(=O)c1ccc(-n2cccc2-c2ccc(F)cc2)cc1 [Example 8, 2-(4-Fluorophenyl)-1-[4-(methylsulfonyl)phenyl]-1H-pyrrole] | 56% | 47% | 
NS(=O)(=O)c1ccc(-n2cccc2-c2ccc(F)cc2)cc1 [Example 9, 4-[2-(4-Fluorophenyl)-1H-pyrrol-1-yl]benzenesulfonamide] |  |  | 10.4 µM
